From patent US8912144B2, “Method for treating stroke via administration of NEP1-40 and inosine” (Children's Medical Center Corporation, priority 2003, dated 2014)

System: corticospinal neurons (CSNs/CSMNs)
Experiment: Laser-capture microdissection and Illumina microarray gene expression in corticospinal neurons contralateral to stroke
Assay type: in vivo, rat
Experimental: In a separate group of animals (n=20), layer V pyramidal cells of the sensorimotor cortex were retrogradely labeled by injecting Alexa-Fluor-488-conjugated cholera toxin B subunit (CTB; 300 U/μl in sterile saline) into the cervical spinal cord. For this, animals were anesthetized with a combination of ketamine and Domitor (medetomidine) and a laminectomy was performed at the cervical level of the spinal cord (C2-C4). CTB was stereotaxically delivered into four sites lateral to the corticospinal tract. Injections (1.3 μl) were spaced 1 mm apart on the rostro-caudal axis, and were made 0.5 mm to the left and right of the midline. After allowing two weeks for transport of the tracer, we performed either sham surgery with no treatment (n=6) or stroke surgery combined with saline (n=3) or inosine (n=4) treatment as described above. Seven days later, animals were decapitated under transient gas anesthesia, brains were removed and rinsed in cold RPMI medium, and a tissue block containing the sensorimotor cortex was dissected and placed in OCT Tissue Tek Medium (Sakura Finetek USA Inc., CA) on dry ice within five minutes of death. Ten μm sections were cut onto precleaned Gold Seal RITE-ON glass slides (Gold Seal Prod-ucts, Portsmouth, N.H.), placed on dry ice, and rapidly stored at −80° C.
Slide-mounted sections were thawed and dehydrated in RNAse-free ethanol gradients and xylene. Retro-gradely labeled, fluorescent cortical pyramidal cells in the undamaged hemisphere were individually captured using the Arcturus VERITAS system. ≧500 cells were collected from each animal and stored in Arcturus extraction buffer at −80° C. Total RNA was extracted from cells using the Micro-to-Midi TotalRNA Purification System (Invitrogen, Carlsbad Calif.) and double-amplified using the TargetAmp 2-Round Aminoallyl-aRNA Amplification kit 1.0 (Epicentre, Madison, Wis.). Amplified RNA was checked for average fragment length using the Agilent RNA 6000 Nano LabChip kit (Agilent Technologies, Santa Clara, Calif.) and then biotinylated and hybridized (1 μg) on Illumina RatRef-12 Expression BeadChip arrays (Illumina, San Diego Calif.), querying the expression of >22,000 RefSeq-curated rat transcripts. Results were obtained from a total of 15 samples representing 6 untreated controls, 4 animals with stroke treated with saline and 5 animals with stroke treated with inosine. Slides were processed and scanned with Illumina BeadStation platform according to the manufacturer protocol.
Raw data was analyzed using Bioconductor packages (www.bioconductor.org, (Gentleman et al., 2004)). Low level quality-control analysis was performed using inter-array Pearson correlation and clustering based on variance. Two arrays (1 saline and 1 inosine-treated) were outliers and were excluded from the analysis. Data was normalized using quantile normalization, and analysis of differential expression was performed using a linear model fitting (LIMMA package, (Smyth, 2005). Differentially expressed genes were classified according to gene ontology using Bioconductor packages and online tools (DAVID, http://david.abcc.ncifcrf.gov/). Pathway analysis was carried out using Ingenuity Pathway Analysis (Ingenuity Systems, www.ingenuity.com).

OC[C@H]1O[C@@H](n2cnc3c(O)ncnc32)[C@H](O)[C@@H]1O [inosine]
Signal Intensity, Spnb4 (ILMN_66300, inosine after stroke): 1147 | Fold-Induction Stroke, ino vs. cntrl, Bbp (ILMN_66323): 0.58 | Signal Intensity, Bbp (ILMN_66323, inosine after stroke): 1150 | Fold-Induction Stroke, ino vs. cntrl, LOC305122 (ILMN_66350): 0.58 | Signal Intensity, LOC305122 (ILMN_66350, inosine after stroke): 771 | Fold-Induction Stroke, ino vs. cntrl, Plekhb1 (ILMN_66651): 0.62 | Signal Intensity, Plekhb1 (ILMN_66651, inosine after stroke): 1687 | Fold-Induction Stroke, ino vs. cntrl, Ppp1r11 (ILMN_66809): 0.90 | Signal Intensity, Ppp1r11 (ILMN_66809, inosine after stroke): 865 | Fold-Induction Stroke, ino vs. cntrl, LOC501538 (ILMN_66820): 0.64 | Signal Intensity, LOC501538 (ILMN_66820, inosine after stroke): 1132 | Fold-Induction Stroke, ino vs. cntrl, Slc25a11 (ILMN_66823): 0.65 | Signal Intensity, Slc25a11 (ILMN_66823, inosine after stroke): 263 | Fold-Induction Stroke, ino vs. cntrl, Optn (ILMN_67016): 0.69 | Signal Intensity, Optn (ILMN_67016, inosine after stroke): 360 | Fold-Induction Stroke, ino vs. cntrl, Lxn (ILMN_67020): 0.72 | Signal Intensity, Lxn (ILMN_67020, inosine after stroke): 433 | Fold-Induction Stroke, ino vs. cntrl, Psmc5 (ILMN_67036): 0.54 | Signal Intensity, Psmc5 (ILMN_67036, inosine after stroke): 1620 | Fold-Induction Stroke, ino vs. cntrl, MGC72992 (ILMN_67222): 0.63 | Signal Intensity, MGC72992 (ILMN_67222, inosine after stroke): 359 | Fold-Induction Stroke, ino vs. cntrl, Ywhaq (ILMN_67273): 0.66 | Signal Intensity, Ywhaq (ILMN_67273, inosine after stroke): 2844 | Fold-Induction Stroke, ino vs. cntrl, LOC498696 (ILMN_67275): 0.51 | Signal Intensity, LOC498696 (ILMN_67275, inosine after stroke): 514 | Fold-induction CSMNs: Cd63 (ILMN_67382, over and above inosine's effect of decreasing stroke-induced changes): 2.10 fold | Fold-Induction Stroke, ino vs. cntrl, Ggcx (ILMN_67463): 0.93 | Signal Intensity, Ggcx (ILMN_67463, inosine after stroke): 526 | Fold-Induction Stroke, ino vs. cntrl, Kif3b (ILMN_67572): 0.79 | Signal Intensity, Kif3b (ILMN_67572, inosine after stroke): 642 | Fold-Induction Stroke, ino vs. cntrl, Zfp422 (ILMN_67578): 0.99 | Signal Intensity, Zfp422 (ILMN_67578, inosine after stroke): 557 | Fold-induction CSMNs: Ms4a6b (ILMN_67686, over and above inosine's effect of decreasing stroke-induced changes): 2.03 fold | Fold-Induction Stroke, ino vs. cntrl, Dcamkl1 (ILMN_67724): 0.59 | Signal Intensity, Dcamkl1 (ILMN_67724, inosine after stroke): 4398 | Fold-Induction Stroke, ino vs. cntrl, LOC501601 (ILMN_67885): 0.54 | Signal Intensity, LOC501601 (ILMN_67885, inosine after stroke): 791 | Fold-Induction Stroke, ino vs. cntrl, Ca2 (ILMN_67903): 0.47 | Signal Intensity, Ca2 (ILMN_67903, inosine after stroke): 1008 | Fold-Induction Stroke, ino vs. cntrl, LOC287622 (ILMN_67961): 0.69 | Signal Intensity, LOC287622 (ILMN_67961, inosine after stroke): 400 | Fold-induction CSMNs: Gfap (ILMN_68224, over and above inosine's effect of decreasing stroke-induced changes): 2.46 fold | Fold-Induction Stroke, ino vs. cntrl, Lkap (ILMN_68337): 0.64 | Signal Intensity, Lkap (ILMN_68337, inosine after stroke): 758 | Fold-Induction Stroke, ino vs. cntrl, Gsn (ILMN_68511): 0.64 | Signal Intensity, Gsn (ILMN_68511, inosine after stroke): 2157 | Fold-Induction Stroke, ino vs. cntrl, Flot2 (ILMN_68584): 0.70 | Signal Intensity, Flot2 (ILMN_68584, inosine after stroke): 667 | Fold-Induction Stroke, ino vs. cntrl, Rab40b (ILMN_68736): 0.63 | Signal Intensity, Rab40b (ILMN_68736, inosine after stroke): 476 | Fold-Induction Stroke, ino vs. cntrl, Dhcr24 (ILMN_68892): 0.53 | Signal Intensity, Dhcr24 (ILMN_68892, inosine after stroke): 1032 | Fold-Induction Stroke, ino vs. cntrl, Sfxn3 (ILMN_68903): 0.57 | Signal Intensity, Sfxn3 (ILMN_68903, inosine after stroke): 261 | Fold-Induction Stroke, ino vs. cntrl, Tde2 (ILMN_68952): 0.53 | Signal Intensity, Tde2 (ILMN_68952, inosine after stroke): 545 | Fold-Induction Stroke, ino vs. cntrl, RGD1309158 (ILMN_69031): 0.52 | Signal Intensity, RGD1309158 (ILMN_69031, inosine after stroke): 630 | Fold-Induction Stroke, ino vs. cntrl, LOC289036 (ILMN_69224): 0.72 | Signal Intensity, LOC289036 (ILMN_69224, inosine after stroke): 1532 | Fold-induction CSMNs: Arpc1b (ILMN_69642, over and above inosine's effect of decreasing stroke-induced changes): 2.31 fold | Fold-Induction Stroke, ino vs. cntrl, Ubl3 (ILMN_69708): 0.83 | Signal Intensity, Ubl3 (ILMN_69708, inosine after stroke): 479 | Fold-Induction, complement cascade gene Bf (B-factor, properdin) (ILMN_69719, LCM-captured CSMNs contralateral a stroke): 2.73 fold | Fold-Induction Stroke, ino vs. cntrl, LOC296126 (ILMN_69931): 0.64 | Signal Intensity, LOC296126 (ILMN_69931, inosine after stroke): 332 | Fold-Induction Stroke, ino vs. cntrl, LOC315463 (ILMN_69949): 0.54 | Signal Intensity, LOC315463 (ILMN_69949, inosine after stroke): 709 | Fold-Induction Stroke, ino vs. cntrl, Zfp216 (ILMN_70270): 0.66 | Signal Intensity, Zfp216 (ILMN_70270, inosine after stroke): 888 | Fold-induction CSMNs: A2m (ILMN_70335, over and above inosine's effect of decreasing stroke-induced changes): 4.10 fold | Fold-Induction Stroke, ino vs. cntrl, LOC366188 (ILMN_70369): 0.85 | Signal Intensity, LOC366188 (ILMN_70369, inosine after stroke): 1100
